The test system of this assay is BDF1 mice, B16 melanoma ip, median survival T/C. Briefly: NCI In Vivo Anticancer Drug Screen. Data for tumor model B16 Melanoma (intraperitoneal) in B6D2F1 (BDF1) mice. Particulars: endpoint: median survival time, higher = longer survival. Put shortly: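 Compounds were tested in mice carrying transplantable tumors. Survival or tumor size was recorded, and each value is the treated-group measurement (T) divided by that of the vehicle-treated control group (C).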

[1] abbreviates: dose: 25.0 mg/kg/injection, schedule: Q01DX009 (ip), vehicle: saline with Tween-80.
Where [2] appears, read: dose: 100.0 mg/kg/injection, schedule: Q01DX009 (ip), vehicle: saline with Tween-80.
[3] abbreviates: dose: 100.0 mg/kg/injection, schedule: Q01DX009 (ip), vehicle: saline.
Setting [4] is: dose: 200.0 mg/kg/injection, schedule: Q01DX009 (ip), vehicle: saline.
Setting [5] is: dose: 100.0 mg/kg/injection, schedule: Q01DX009 (ip), vehicle: Klucel (hydroxypropylcellulose) (HPC).
Setting [6] is: dose: 200.0 mg/kg/injection, schedule: Q01DX009 (ip), vehicle: Klucel (hydroxypropylcellulose) (HPC).
[7] abbreviates: dose: 6.25 mg/kg/injection, schedule: Q01DX009 (ip), vehicle: Klucel (hydroxypropylcellulose) (HPC).
The mark [8] stands for this setting: dose: 25.0 mg/kg/injection, schedule: Q01DX009 (ip), vehicle: Klucel (hydroxypropylcellulose) (HPC).
Where [9] appears, read: dose: 50.0 mg/kg/injection, schedule: Q01DX009 (ip), vehicle: Klucel (hydroxypropylcellulose) (HPC).
The mark [10] stands for this setting: dose: 100.0 mg/kg/injection, schedule: Q04DX003 (ip), vehicle: Klucel (hydroxypropylcellulose) (HPC).
[11] abbreviates: dose: 12.5 mg/kg/injection, schedule: Q01DX009 (ip), vehicle: Klucel (hydroxypropylcellulose) (HPC).
The mark [12] stands for this setting: dose: 100.0 mg/kg/injection, schedule: Q04DX003 (ip), vehicle: saline with Tween-80.
Setting [13] is: dose: 200.0 mg/kg/injection, schedule: Q04DX003 (ip), vehicle: saline with Tween-80.
Setting [14] is: dose: 400.0 mg/kg/injection, schedule: Q04DX003 (ip), vehicle: saline with Tween-80.

Several values for one entry are separate records, joined by “and”; a condition that tells them apart may be missing. Equal values may be shown once. Toxic doses and inconclusive results are not listed.

Data on 24 molecules can be found in PubChem BioAssay AID192 (DTP/NCI, 2004).

For `CN(N=O)C(N)=O`, the T/C is, setting by setting: (dose: 3.13 mg/kg/injection, schedule: Q01DX009 (ip), vehicle: saline) 114 % of control; (dose: 6.25 mg/kg/injection, schedule: Q01DX009 (ip), vehicle: saline) 116 % of control.

On to `CS(=O)(=O)c1cc(=O)[nH]c(=O)[nH]1`, for which the T/C is 95 % of control under setting [1] and 92 % of control under setting [2].

In the case of `CNC(=O)Oc1ccc2c(c1)OCO2`, the T/C (dose: 50.0 mg/kg/injection, schedule: Q01DX009 (ip), vehicle: saline) was 95 % of control; the T/C under setting [3] was 114 % of control; the T/C under setting [4] is 107 % of control.

As for `COC(=O)C(N)CCCCNc1ccc2c(cc1=O)C(NC(C)=O)CCc1cc(OC)c(OC)c(OC)c1-2` (stereo not drawn), the T/C is 103 % of control (dose: 35.0 mg/kg/injection, schedule: Q01DX009 (ip), vehicle: saline); 106 % of control (dose: 53.0 mg/kg/injection, schedule: Q01DX009 (ip), vehicle: saline); 93 % of control (dose: 80.0 mg/kg/injection, schedule: Q01DX009 (ip), vehicle: saline); 88 % of control (dose: 120.0 mg/kg/injection, schedule: Q01DX009 (ip), vehicle: saline); 92 % of control (dose: 180.0 mg/kg/injection, schedule: Q01DX009 (ip), vehicle: saline).

With `O=C(Nc1ccccc1)Nc1cc(C(F)(F)F)ccc1Cl`, the T/C is, setting by setting: (dose: 100.0 mg/kg/injection, schedule: Q04DX009 (ip), vehicle: Klucel (hydroxypropylcellulose) (HPC)) 109 % of control; (dose: 200.0 mg/kg/injection, schedule: Q04DX003 (ip), vehicle: carboxymethylcellulose (CMC)) 90 % of control; (dose: 200.0 mg/kg/injection, schedule: Q04DX009 (ip), vehicle: Klucel (hydroxypropylcellulose) (HPC)) 106 % of control; (dose: 400.0 mg/kg/injection, schedule: Q04DX003 (ip), vehicle: carboxymethylcellulose (CMC)) 92 % of control; (dose: 400.0 mg/kg/injection, schedule: Q04DX009 (ip), vehicle: Klucel (hydroxypropylcellulose) (HPC)) 86 % of control.

`NC(Cc1ccc(N(CCCl)CCCl)cc1)C(=O)O` (stereo not drawn): the T/C is 188 % of control (dose: 2.0 mg/kg/injection, schedule: Q01DX009 (ip), vehicle: saline); 118 % of control (dose: 2.0 mg/kg/injection, schedule: Q01DX009 (ip), vehicle: water); 272 % of control (dose: 4.0 mg/kg/injection, schedule: Q01DX009 (ip), vehicle: water); 172 % of control (dose: 8.0 mg/kg/injection, schedule: Q01DX009 (ip), vehicle: water).

Take `CCOc1ccccc1NC(=O)c1ccccc1Cl`: the T/C under setting [5] was 106 % of control; the T/C under setting [6] is 106 % of control; the T/C (dose: 400.0 mg/kg/injection, schedule: Q01DX009 (ip), vehicle: Klucel (hydroxypropylcellulose) (HPC)) was 93 % of control.

Consider `O=C(NNCc1ccccc1)c1ccccn1`, for which the T/C is 90 % of control under setting [7]; 90 % of control under setting [8]; 88 % of control and 100 % of control under setting [9].

In the case of `C=CCNC(=S)Nc1cc(Cl)ccc1C`, the T/C is 103 % of control (dose: 50.0 mg/kg/injection, schedule: Q04DX003 (ip), vehicle: Klucel (hydroxypropylcellulose) (HPC)) and 100 % of control under setting [10].

Take `COc1cc(C(=O)N=Nc2c(O)[nH]c3ccc(Br)cc23)cc(OC)c1OC`: the T/C under setting [8] is 98 % of control, the T/C under setting [9] is 109 % of control and the T/C under setting [5] is 86 % of control.

As for `CCCN1COC(OCC)C(C)(C)C1` (stereo not drawn), the T/C is 104 % of control under setting [1]; 100 % of control (dose: 50.0 mg/kg/injection, schedule: Q01DX009 (ip), vehicle: saline with Tween-80); 98 % of control under setting [2]; 100 % of control (dose: 200.0 mg/kg/injection, schedule: Q01DX009 (ip), vehicle: saline with Tween-80).

As for `O=NO.O=N[O-].O=N[O-].[Co+3].[NH2-].[NH2-].[NH2-].[NH2-]`, the T/C is, setting by setting: under setting [7], 88 % of control; under setting [11], 91 % of control; under setting [8], 92 % of control and 101 % of control.

On to `C/C(=C\c1ccccc1Cl)[N+](=O)[O-]`, for which the T/C runs as follows: (dose: 37.5 mg/kg/injection, schedule: Q01DX009 (ip), vehicle: Klucel (hydroxypropylcellulose) (HPC)) 96 % of control; (dose: 75.0 mg/kg/injection, schedule: Q01DX009 (ip), vehicle: Klucel (hydroxypropylcellulose) (HPC)) 96 % of control.

`CN(C)CCCN=Cc1ccc(O)cc1O.CN(C)CCCN=Cc1ccc(O)cc1O.[Ni+2]`: the T/C is 95 % of control (dose: 6.25 mg/kg/injection, schedule: Q01DX009 (ip), vehicle: saline with Tween-80); 95 % of control (dose: 12.5 mg/kg/injection, schedule: Q01DX009 (ip), vehicle: saline with Tween-80); 117 % of control (dose: 12.5 mg/kg/injection, schedule: Q04DX003 (ip), vehicle: saline with Tween-80); 92 % of control under setting [1]; 86 % of control (dose: 25.0 mg/kg/injection, schedule: Q04DX003 (ip), vehicle: saline with Tween-80).

In the case of `CC1CN=C(c2ccc(NC(=O)c3ccc(C(=O)Nc4ccc(C5=NCC(C)N5)cc4)cc3)cc2)N1` (stereo not drawn), the T/C was 118 % of control under setting [11] and 107 % of control under setting [8].

As to `COc1ccc(C2CCC(=O)CC2C(=O)O)cc1` (stereo not drawn), the T/C is 94 % of control under setting [10] and 100 % of control (dose: 400.0 mg/kg/injection, schedule: Q04DX003 (ip), vehicle: Klucel (hydroxypropylcellulose) (HPC)).

In the case of `CCCCCCCCCCCCCCCCc1ccc(CCCC(=O)O)cc1`, the T/C by setting is: (dose: 25.0 mg/kg/injection, schedule: Q01DX009 (ip), vehicle: carboxymethylcellulose (CMC)) 101 % of control; (dose: 50.0 mg/kg/injection, schedule: Q01DX009 (ip), vehicle: carboxymethylcellulose (CMC)) 103 % of control; (dose: 100.0 mg/kg/injection, schedule: Q01DX009 (ip), vehicle: carboxymethylcellulose (CMC)) 95 % of control.

For `CNC(=O)Oc1coc(CCl)cc1=O`, the T/C (dose: 12.0 mg/kg/injection, schedule: Q01DX009 (ip), vehicle: Klucel (hydroxypropylcellulose) (HPC)) was 93 % of control; the T/C (dose: 18.0 mg/kg/injection, schedule: Q01DX009 (ip), vehicle: Klucel (hydroxypropylcellulose) (HPC)) is 96 % of control; the T/C (dose: 27.0 mg/kg/injection, schedule: Q01DX009 (ip), vehicle: Klucel (hydroxypropylcellulose) (HPC)) is 96 % of control; the T/C (dose: 40.0 mg/kg/injection, schedule: Q01DX009 (ip), vehicle: Klucel (hydroxypropylcellulose) (HPC)) is 106 % of control.

Turning to `N#CCc1ccccc1S(=O)(=O)O`, the T/C is, setting by setting: under setting [3], 103 % of control; under setting [4], 104 % of control; (dose: 400.0 mg/kg/injection, schedule: Q01DX009 (ip), vehicle: saline) 104 % of control.

Turning to `CC(C)(C)n1cc(C(=O)c2ccccc2)cc1-c1ccccc1`, the T/C runs as follows: under setting [12], 97 % of control; under setting [13], 100 % of control; under setting [14], 100 % of control.

As to `CN(C)C(=O)C1(c2ccc(Cl)cc2)CCN(CCCC(=O)c2ccc(F)cc2)CC1`, the T/C is 94 % of control under setting [11], 94 % of control under setting [8] and 97 % of control under setting [9].

With `CCN(C(=O)Nc1ccccc1Cl)c1ccccc1`, the T/C under setting [12] was 94 % of control, the T/C under setting [13] was 100 % of control and the T/C under setting [14] was 91 % of control.

With `O=C1NC(=O)C2(CCc3ccc(N(CCCl)CCCl)cc32)N1` (stereo not drawn), the T/C reads like this: (dose: 1.5 mg/kg/injection, schedule: Q01DX009 (ip), vehicle: saline with Tween-80) 120 % of control; (dose: 3.0 mg/kg/injection, schedule: Q01DX009 (ip), vehicle: saline with Tween-80) 116 % of control; (dose: 12.0 mg/kg/injection, schedule: Q01DX009 (ip), vehicle: saline with Tween-80) 183 % of control; (dose: 12.5 mg/kg/injection, schedule: Q01DX004 (oral), vehicle: saline with Tween-80) 102 % of control.

Regarding `Cc1cc(C)c(-c2cc(O)c(C)cc2O)c(C)c1`, the T/C was 95 % of control under setting [11]; 97 % of control under setting [8]; 97 % of control under setting [9]; 93 % of control under setting [5]; 90 % of control under setting [6].
